Measurements from patent US20030207819A1, “Compositions and methods for treating inflammatory connective tissue diseases” (priority 2002, published 2003).
Entries after “also recorded” stand apart in the source; their conditions may differ.

Assays:
Type in all cases: in vivo, human
[1] = system: patient with undifferentiated connective tissue disease; test: Example 2: clarithromycin re-challenge of Example 1 patient, symptoms and laboratory assessments
Procedure: Subsequent to the observations made in Example 1, the patient was re-challenged with clarithromycin, and re-evaluated as to symptomatic efficiency. In parallel with clinical observations, laboratory assessments including erythrocyte sedimentation rate, C-reactive protein, and serum interleukins 1 and 6 were measured. The laboratory results are illustrated in Table 1.
On Jul. 29, 2002 the clarithromycin treatment of the patient from Example 1 was discontinued (Table 1). Their additional medications included: ZESTRIL® (Astra Zenica) at 1 mg/t.i.d., CALTRATE® with Vitamin D (Wyeth)/b.i.d., UNITHROID™ (Jerome Stevens Pharmaceuticals, Inc.) at 0.05 mg/day, TROZODONE® (Watson Laboratories, Inc.) at 50 mg/h.s., TYLENOL® (McNeil Consumer Brands) at 1 gm/p.r.n., multi-vitamins/p.r.n., iron tablets, quinine at 260 mg, and non-specific herbs. […] When the patient was observed on Aug. […] The symptoms were sufficiently severe that they asked to be restarted on clarithromycin. When observed on Aug. 15, 2002, they stated they had become “100% better” by Aug. 11, 2002. The patient was continued on clarithromycin at 500 mg b.i.d. and observed serially at weekly intervals on Aug. 22, 2002, Aug. 27, 2002, and Sep. 5, 2002.
These findings are similar to their clinical history over the past several years with respect to clarithromycin therapy and response of connective tissue symptoms.

[2] = system: patient with undifferentiated connective tissue disease; test: Example 6: clarithromycin trial, VAS and joint assessment; conditions: for Patient VAS (Pain): baseline 89; for Practitioner VAS (Global): baseline 60; for Patient VAS (Global): baseline 63
Text: A patient, was first seen in September 1999. […] They have used a number of anti-inflammatory agents frequently for therapy.
On the basis of the findings, including recurrent episodes of arthritis, Raynaud's, and thickening of the hands, connective tissue disease diagnoses such as Mixed Connective Tissue Disease or Progressive Systemic Sclerosis were considered.
Based on these findings, a diagnosis of Undifferentiated Connective Tissue Disease was made. Therapy was initiated with hydroxychloroquine ([…]®, Sanofi-Synthelabo, Inc.) and a non-steroidal anti-inflammatory agent. They utilized steroid dose packs periodically for symptomatic relief of their peripheral symptoms as well as their neck symptoms.
On examination, they had symptoms and findings much as before and a diagnosis of Undifferentiated Connective Tissue Disease was made. The patient agreed to undergo a trial with clarithromycin.
Following screening and baseline evaluations, the patient was begun on clarithromycin (BIAXIN®, Abbott Laboratories).
25, 2003 (“Visit 3”), for their first recheck visit.
When seen for their one month evaluation, the patient had been off steroid medication for approximately ten days.
Further assessment of their status was made on Apr. 13, 2003 at which time they were now off steroids for almost a one-month period.
Patient was again seen Apr. 21, 2003 (“Visit Four”), for their formal two-month follow-up on clarithromycin.

[3] = system: patient with chondrocalcinosis leading to pseudorheumatoid pseudogout syndrome; test: Example 4: clarithromycin re-challenge of Example 3 patient, symptoms and laboratory assessments
Procedure: Subsequent to the observations made in Example 3, the patient was re-challenged with clarithromycin, and re-evaluated as to symptomatic efficiency. In parallel with clinical observations, laboratory assessments including erythrocyte sedimentation rate, C-reactive 1 5 protein, and serum interleukins 1 and 6 were measured. The laboratory results are illustrated in Table 2.
On Jun. 15, 2002 the patient from Example 3 underwent a right pneumonectomy for treatment of recurrent lung cancer. During that hospitalization, clarithromycin was discontinued.
The patient underwent formal re-challenge with clarithromycin on Aug. 19, 2002 (Table 2). At that time their medications included ibuprofen at 400 mg/day, acetaminophen at 500 mg/as needed, prednisone at 5 mg/daily, CELEXA™ (Forest Pharmaceuticals, Inc.) at […], REMURON® (Organon Inc.) at 7.5 mg/h.s., DURICEF® (Bristol) at 500 mg b.i.d., TIMOPTIC® eye drops (Merck & Co.), and multi-vitamins. […] Clarithromycin at 500 mg b.i.d. was restarted on Aug. 20, 2002. When seen on Aug. […] 19, 2002. […] 28, 2002. On Sep. […] Ibuprofen was decreased to […] on Sep. 5, 2002. On Sep. […] On Sep.

[4] = system: patient with undifferentiated connective tissue disease; test: Example 1: clinical observation of patient on clarithromycin; conditions: person
Text: We elected to continue them on this antibiotic. […] Because the patient was on Lodine (NSAID) at the same time, we elected to see if they could stop the Lodine and still have relief of symptoms.

[5] = Aug. 8, 2002, 10 days off clarithromycin
[6] = Aug. 15, 2002, clarithromycin restarted
[7] = Aug. 22, 2002, on clarithromycin
[8] = Aug. 27, 2002, on clarithromycin
[9] = Jul. 29, 2002, on clarithromycin 500 mg BID
[10] = Sep. 5, 2002, on clarithromycin
[11] = Visit Four, Apr. 21, 2003, clarithromycin for two months
[12] = Visit Four, clarithromycin for two months
[13] = Visit Three, clarithromycin for one month
[14] = Oct. 8, 2002, off clarithromycin
[15] = Sep. 4, 2002, on clarithromycin
[16] = Sep. 9, 2002, on clarithromycin
[17] = Sep. 23, 2002, off clarithromycin

For `CC[C@H]1OC(=O)[C@H](C)[C@@H](O[C@H]2C[C@@](C)(OC)[C@@H](O)[C@H](C)O2)[C@H](C)[C@@H](O[C@@H]2O[C@H](C)C[C@H](N(C)C)[C@H]2O)[C@](C)(OC)C[C@@H](C)C(=O)[C@H](C)[C@@H](O)[C@]1(C)O` [clarithromycin, 6-O-methylerythromycin], the ESR [1, 5] was 25 mm/hr, the IL-6 [1, 5] was 2.1 pg/mL and the Symptoms [1, 5] was “generalized joint pain, associated with swelling”. For the same compound, the Symptoms ([1]; Aug. 15, 2002, clarithromycin 500 mg b.i.d. restarted, better on Aug. 11, 2002) was 100% better, the CPR [1, 6] was under 0.3 mg/dL and the ESR [1, 6] was 21 mm/hr. For the same compound, the IL-6 [1, 6] was 0.9 pg/mL, the CPR [1, 7] was under 0.3 mg/dL and the ESR [1, 7] was 34 mm/hr. For the same compound, the IL-6 [1, 7] was 0.7 pg/mL, the Symptoms ([1]; Aug. 22, 2002, on clarithromycin 500 mg b.i.d.) was “Doing well” and the CPR [1, 8] was under 0.3 mg/dL. For the same compound, the ESR [1, 8] was 21 mm/hr, the IL-6 [1, 8] was 1.1 pg/mL and the Symptoms ([1]; Aug. 27, 2002, on clarithromycin 500 mg b.i.d.) was “Doing well”. The CPR [1, 9] was under 0.3 mg/dL, the ESR [1, 9] was 29 mm/hr and the Symptoms ([1]; Jul. 29, 2002, on clarithromycin 500 mg po BID, discontinued at this visit) was “Good Control”. The CPR [1, 10] was under 0.3 mg/dL, the ESR [1, 10] was 34 mm/hr and the IL-6 [1, 10] was 1 pg/mL. The Symptoms ([1]; Sep. 5, 2002, on clarithromycin 500 mg b.i.d.) was “Doing well”, the “change in ESR, CRP, Interleukin-1, or Interleukin-6” value ([1]; over the re-challenge Jul. 29 to Sep. 5, 2002) was “no significant change” and the side reaction ([2]; Apr. 13, 2003, on clarithromycin) was “bad taste”. The “pain VAS, patient rating” value ([2]; Apr. 13, 2003, on clarithromycin, off steroids almost one month) was 25 mm, the “patient statement of improvement” value [2, 11] was 80% better and the side reaction [2, 11] was “mild bad taste”. The “Patient VAS (Pain)” value [2, 11] was 11 mm, the “Practitioner VAS (Global)” value [2, 12] was 4 mm and the “Patient VAS (Global)” value [2, 12] was 14 mm. For the same compound, the “Patient VAS (Pain)” value ([2]; Visit Three, Mar. 25, 2003, clarithromycin for one month, off steroid about ten days) was 16 mm, the “Tender/Painful Joints” value ([2]; Visit Three, clarithromycin for one month, baseline 3) was 0 and the “Practitioner VAS (Global)” value [2, 13] was 31 mm. The “Patient VAS (Global)” value [2, 13] was 51 mm, the CPR [3, 8] was 0.74 mg/dL and the ESR [3, 8] was 18 mm/hr. The IL-6 [3, 8] was 6.8 pg/mL, the Symptoms ([3]; Aug. 27, 2002, on clarithromycin 500 mg BID since Aug. 20, 2002, compared to baseline Aug. 19, 2002) was “had not observed improvement; also recorded: No change” and the CPR [3, 14] was 0.77 mg/dL. The ESR [3, 14] was 10 mm/hr, the IL-6 [3, 14] was 1.8 pg/mL and the Symptoms ([3]; Oct. 8, 2002, off clarithromycin, prednisone 5 mg QD) was “continued active”. It also gave a CPR [3, 15] of 0.78 mg/dL, an ESR [3, 15] of 10 mm/hr and an IL-6 [3, 15] of 2.5 pg/mL. For the same compound, the Symptoms ([3]; Sep. 4, 2002, on clarithromycin, ibuprofen increased to 800 mg/day on Aug. 28, 2002) was 40% better, the CPR [3, 16] was 1.06 mg/dL and the ESR [3, 16] was 11 mm/hr. For the same compound, the IL-6 [3, 16] was 4.5 pg/mL, the Symptoms ([3]; Sep. 9, 2002, on clarithromycin, discontinued at this visit, ibuprofen 600 mg/day) was “No change” and the Symptoms ([3]; Sep. 16, 2002, off clarithromycin, ibuprofen 400 mg/day) was “Worse”. For the same compound, the IL-6 ([3]; Sep. 16, 2002, one week following clarithromycin discontinuation, baseline 2.2) was 33.1 pg/mL, the ESR [3, 17] was 37 mm/hr and the IL-6 [3, 17] was 6.4 pg/mL. The Symptoms [3, 17] was “continued worsening; also recorded: Worse”, the CPR ([3]; Sep. 23, 2002, off clarithromycin, baseline 0.85) was 3.51 mg/dL and the joints ([3]; clarithromycin begun again as antimicrobial therapy after pneumonectomy) was “once again improved”. For the same compound, the arthritis symptoms ([3]; five to six days following discontinuation of clarithromycin, hospitalization June 2002) was “significantly worse”, the ESR ([3]; off clarithromycin, increase from 11 mm at baseline, date not given in the text) was 37 mm and the “change in IL-1” value ([3]; over the re-challenge Aug. 19 to Oct. 8, 2002) was “No significant change”. For the same compound, the Symptoms ([4]; back on 500 mg/bid after 250 mg/bid) was “improved essentially completely”, the “symptoms with respect to connective tissue changes” value ([4]; clarithromycin 500 mg b.i.d. begun December 1998) was “significantly improved” and the Symptoms ([4]; dose reduced to 250 mg/bid) was “symptoms returned”. The “undifferentiated connective disease status” value ([4]; last seen Feb. 12, 2002, continued clarithromycin) was “under control” and the joint symptoms ([4]; reduced dose of 750 mg/day) was “increased swelling of the hands, painful wrists, knee swelling and hand stiffness”.
